This experiment has as its system mice. The experiment is described as follows: Hypnotic activity: loss of righting reflex after intravenous injection in mice. The format is in vivo. Conditions: intravenous injection over 10 seconds, dose causing loss of righting reflex for minimum 30 seconds in 50% of treated mice; for ED50: Mus musculus, read-out: HD50 (hypnotic dose50). On the procedure:
The hypnotic potency of the alanine 2,6-dialkoxyphenyl ester derivatives of the invention was determined upon their intravenous administration in mice. The dose required to cause a loss of righting reflex for a minimum period of 30 seconds in 50% of treated mice after intravenous injection over 10 seconds was determined. This dose is termed the HD50 (hypnotic dose50) and is expressed in μmol.kg^−1. These in vivo experiments were carried out as described in detail by Anderson et al., J. Med. Chem. 1997, 40, 1668–1681.

Turning to `COCCC(C(=O)Oc1c(OC)cccc1OC)N1CCCOCC1` (centres unmarked) [Example 51a, (ξ)-2-[4-(Hexahydro-1-oxazepinyl)]-4-methoxybutyric acid,2,6-dimethoxyphenyl ester], the “HD50 (hypnotic dose50)” value was found to be 15 µmol/kg.

For the molecule `CCOCC(C(=O)Oc1c(OC)cccc1OC)N1CCCOCC1` (centres unmarked) [Example 3r, 3-Ethoxy-2-[4-(Hexahydro-1-oxazepinyl)]propionic acid, 2,6-dimethoxyphenyl ester], the “HD50 (hypnotic dose50)” value was 20 µmol/kg.

For the molecule `COc1cc(C)cc(OC)c1OC(=O)C(CC(=O)N1CCCCC1)N1CCCCC1` (centres unmarked) [Example 34a, Butanedioic, 4-(1-piperidinyl)-4-oxo-, 2-(1-piperidinyl)-, 1-(2,6-dimethoxy-4-methylphenyl)ester], the “HD50 (hypnotic dose50)” value came to 38 µmol/kg. Turning to `CCOCCC(C(=O)Oc1c(OC)cc(C)cc1OC)N1CCCOCC1` (centres unmarked) [Example 10w, 4-Ethoxy-2-[4-(hexahydro-1-oxazepinyl)]butyric acid, 2,6-dimethoxy-4-methylphenyl ester], the “HD50 (hypnotic dose50)” value is 26 µmol/kg.

Turning to `COc1cccc(OC)c1OC(=O)C(CCSC)N1CCCCCCC1` (centres unmarked) [Example 40d, Butanoic acid, 2-(1-hexahydroazocinyl)-4-(methylthio), 1-(2,6-dimethoxyphenyl)ester], the “HD50 (hypnotic dose50)” value is 35 µmol/kg. As to `CCOCCC(C(=O)Oc1c(OC)cccc1OC)N(CCOCC)CCOCC` (centres unmarked) [Example 10s, 2-[N-(Bis(2-ethoxyethyl)amino)]-4-ethoxybutyric acid, 2,6-dimethoxyphenyl ester], the “HD50 (hypnotic dose50)” value amounted to 47 µmol/kg. With `CCC1(C)CN(C(CN2CCOCC2)C(=O)Oc2c(OC)cccc2OC)CCO1` (centres unmarked) [Example 19f, 2-[4-(2-Ethyl-2-methylmorpholinyl)]-3-(4-morpholinyl)propanoic acid, 2,6-dimethoxyphenyl ester], the “HD50 (hypnotic dose50)” value is 21 µmol/kg. `COCCC(C(=O)Oc1c(OC)cccc1OC)N1CCOCC1` (centres unmarked) [Example 10b, 4-Methoxy-2-[4-morpholinyl]butyric acid, 2,6-dimethoxyphenyl ester]: the ED50 came out at 38 µmol/kg. In the case of `COCCN(C)C(COC)C(=O)Oc1c(OC)cc(C)cc1OC` (centres unmarked) [Example 3l, 3-Methoxy-2-[N-(2-Methoxyethyl)methylamino]propionic acid, 2,6-dimethoxy-4-methylphenyl ester], the ED50 was determined as 58 µmol/kg. As for `COC(=O)CCC(C(=O)Oc1c(OC)cccc1OC)N1CCCCC1.Cl` (centres unmarked) [Example 47a, Pentanedioic acid, 2-(1-piperidinyl)-, 1-(2,6-dimethoxyphenyl)ester, 5-methyl ester hydrochloride (1:1) salt], the “HD50 (hypnotic dose50)” value was determined as 50 µmol/kg. `COc1cc(C)cc(OC)c1OC(=O)C(CCSC)N1CCOCC1` (centres unmarked) [Example 39a, Butanoic acid, 4-(methylthio)-2-(4-morpholinyl)-, 1-(2,6-dimethoxy-4-methylphenyl)ester]: the “HD50 (hypnotic dose50)” value amounted to 35 µmol/kg.

On to `COCC(C(=O)Oc1c(OC)cccc1OC)N1CCSCC1` (centres unmarked) [Example 3c, 3-Methoxy-2-[N-thiomorpholinyl]propionic acid, 2 ,6-dimethoxyphenyl ester], for which the “HD50 (hypnotic dose50)” value worked out at 21 µmol/kg. With `COc1cccc(OC)c1OC(=O)C(CN1CCOCC1)N1CCSCC1` (centres unmarked) [Example 19a, 3-(4-Morpholinyl)-2-(N-thiomorpholinyl)propanoic acid, 2,6-dimethoxyphenyl ester], the ED50 is 17 µmol/kg. Regarding `COCCC(C(=O)Oc1c(OC)cccc1OC)N(CCOC)CCOC` (centres unmarked) [Example 10h, 2-[N-(Bis(2-methoxyethyl)amino)]-4-methoxybutyric acid, 2,6-dimethoxyphenyl ester], the “HD50 (hypnotic dose50)” value is 27 µmol/kg.

In the case of `COCCC(C(=O)Oc1c(OC)cc(C)cc1OC)N1CCCOCC1` (centres unmarked) [Example 10j, 2-[4-(Hexahydro-1-oxazepinyl)]-4-methoxybutyric acid, 2,6-dimethoxy-4-methylphenyl ester], the “HD50 (hypnotic dose50)” value turned out to be 25 µmol/kg. In the case of `CCOCCC(C(=O)Oc1c(OC)cc(C)cc1OC)N1CCOCC1` (centres unmarked) [Example 10t, 4-Ethoxy-2-[4-morpholinyl]butyric acid, 2,6-dimethoxy-4-methylphenyl ester], the ED50 was found to be 36 µmol/kg.

In the case of `CCOCCC(C(=O)Oc1c(OC)cccc1OC)N(CCOC)CCOC` (centres unmarked) [Example 10r, 2-[N-(Bis(2-methoxyethyl)amino)]-4-ethoxybutyric acid, 2,6-dimethoxyphenyl ester], the “HD50 (hypnotic dose50)” value amounted to 27 µmol/kg. On the same count and under the same terms, under `COCCN(CCOC)C(CC(=O)OC)C(=O)Oc1c(OC)cc(C)cc1OC` (centres unmarked) [Example 24b, Butanedioic, 2-[N-bis(2-methoxyethyl)amino]-, 1-(2,6-dimethoxy-4-methylphenyl)ester, 4-methyl ester] stands 48 µmol/kg; under `COc1cccc(OC)c1OC(=O)C(CN1CCc2ccccc2C1)N1CCOCC1` (centres unmarked) [Example 19j, 2-(4-Morpholinyl)-3-(1,2,3,4-tetrahydroisoquinoline)propanoic acid, 2,6-dimethoxyphenyl ester], 21 µmol/kg; under “2-[N-(Hexahydroazepinyl)]-3-methoxypropionic acid, 2,6-dimethoxyphenyl ester [Example 3d]”, 22 µmol/kg. As for `COc1cccc(OC)c1OC(=O)C(CCSC)N1CCCCCC1` (centres unmarked) [Example 40c, Butanoic acid, 2-(1-hexahydroazepinyl)-4-(methylthio), 1-(2,6-dimethoxyphenyl)ester], the “HD50 (hypnotic dose50)” value came to 18 µmol/kg.

Regarding `COCCN(CCOC)C(COC)C(=O)Oc1c(OC)cc(C)cc1OC` (centres unmarked) [Example 3i, 2-[N-Bis(2-methoxyethyl)amino]-3-methoxypropionic acid, 2,6-dimethoxy-4-methylphenyl ester], the “HD50 (hypnotic dose50)” value was 28 µmol/kg. For `COCCC(C(=O)Oc1c(OC)cccc1OC)N1CCCCC1` (centres unmarked) [Example 10f, 4-Methoxy-2-[1-piperidinyl]butyric acid, 2,6-dimethoxyphenyl ester], the ED50 worked out at 22 µmol/kg. For the molecule `COc1cccc(OC)c1OC(=O)C(CCN1CCOC(C)(C)C1)N1CCOC(C)(C)C1` (centres unmarked) [Example 21b], the “HD50 (hypnotic dose50)” value amounted to 25 µmol/kg.

As for `CCOCCC(C(=O)Oc1c(OC)cccc1OC)N1CCOCC1` (centres unmarked) [Example 10o, 4-Ethoxy-2-[4-morpholinyl]butyric acid, 2,6-dimethoxyphenyl ester], the ED50 turned out to be 36 µmol/kg. As to `CCOCCC(C(=O)Oc1c(OC)cccc1OC)N1CCCOCC1` (centres unmarked) [Example 10p, 4-Ethoxy-2-[4-(hexahydro-1-oxazepinyl)]butyric acid, 2,6-dimethoxyphenyl ester], the “HD50 (hypnotic dose50)” value came out at 23 µmol/kg. Still for that read-out and setting: under `COC(=O)CCC(C(=O)Oc1c(OC)cc(C)cc1OC)N1CCCC1.Cl` (centres unmarked) [Example 49a, Pentanedioic acid, 2-(1-pyrrolidinyl)-, 1-(2,6-dimethoxy4-methylphenyl)-ester, 5-methyl ester hydrochloride (1:1) salt] stands 50 µmol/kg. `COc1cccc(OC)c1OC(=O)C(CN1CCOCC1)N1CCCCC1` (centres unmarked) [Example 19g, 3-(4-Morpholinyl)-2-(1-piperidinyl)propanoic acid, 2,6-dimethoxyphenyl ester]: the ED50 was determined as 15 µmol/kg. As for `COC[C@H](C(=O)Oc1c(OC)cccc1OC)N1CCCOCC1` [Example 52a, 2R-[4-(Hexahydro-1-oxazepinyl)]-3-methoxypropionic acid, 2,6-dimethoxyphenyl ester], the ED50 is 16 µmol/kg.

These data come from patent US7141560B2, “Alanine 2,6-dialkoxyphenyl ester derivatives as hypnotics” (Akzo Nobel N.V., priority 2001, dated 2006).
